How the values were obtained:
[1] = molecular target: Tyrosine-protein kinase Lck (Homo sapiens, UniProt P06239); assay: Inhibition of p56 Lck tyrosine kinase
[2] = molecular target: cAMP-dependent protein kinase (PKA) (Homo sapiens, UniProt P22694+P17612+P22612); assay: Inhibition of Protein Kinase A (PKA); format: protein assay
[3] = molecular target: Proto-oncogene tyrosine-protein kinase Src (Homo sapiens, UniProt P12931); assay: Inhibition of Src tyrosine kinase
Chain of Proto-oncogene tyrosine-protein kinase Src (P12931 2-536 limits assumed): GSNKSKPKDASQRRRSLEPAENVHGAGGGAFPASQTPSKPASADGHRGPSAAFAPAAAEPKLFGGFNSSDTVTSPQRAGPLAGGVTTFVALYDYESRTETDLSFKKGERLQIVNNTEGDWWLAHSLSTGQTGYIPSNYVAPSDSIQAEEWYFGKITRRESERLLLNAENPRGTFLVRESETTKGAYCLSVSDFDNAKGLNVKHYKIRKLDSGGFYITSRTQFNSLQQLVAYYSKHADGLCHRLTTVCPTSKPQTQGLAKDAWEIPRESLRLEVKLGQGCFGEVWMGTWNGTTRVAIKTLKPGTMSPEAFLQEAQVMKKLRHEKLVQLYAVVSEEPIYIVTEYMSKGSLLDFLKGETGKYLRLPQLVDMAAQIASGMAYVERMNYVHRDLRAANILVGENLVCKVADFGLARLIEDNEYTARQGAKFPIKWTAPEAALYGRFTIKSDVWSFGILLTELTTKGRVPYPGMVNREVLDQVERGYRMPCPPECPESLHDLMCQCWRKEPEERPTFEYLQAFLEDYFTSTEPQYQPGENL

Chain of Tyrosine-protein kinase Lck (P06239 whole entry): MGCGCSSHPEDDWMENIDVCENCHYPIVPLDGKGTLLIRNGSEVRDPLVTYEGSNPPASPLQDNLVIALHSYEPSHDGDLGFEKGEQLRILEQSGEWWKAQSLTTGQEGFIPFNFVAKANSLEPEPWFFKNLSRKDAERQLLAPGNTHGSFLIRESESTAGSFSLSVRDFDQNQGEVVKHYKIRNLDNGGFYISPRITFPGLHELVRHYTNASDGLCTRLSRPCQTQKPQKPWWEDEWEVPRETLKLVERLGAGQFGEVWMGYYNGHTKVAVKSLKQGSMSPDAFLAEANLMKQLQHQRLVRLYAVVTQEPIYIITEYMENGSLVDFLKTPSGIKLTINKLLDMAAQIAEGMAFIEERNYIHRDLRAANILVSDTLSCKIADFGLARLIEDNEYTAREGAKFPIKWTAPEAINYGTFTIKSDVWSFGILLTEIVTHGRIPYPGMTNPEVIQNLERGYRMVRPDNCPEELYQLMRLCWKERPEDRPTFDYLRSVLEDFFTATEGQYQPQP

Row | SMILES | IC50 [1] | IC50 [2] | IC50 [3]
1 | O=C1/C(=C\c2cc(Br)c(O)c(Br)c2)C(=O)c2cc([N+](=O)[O-])ccc21 | > 5000 nM |  | 
2 | COc1ccc2c(c1)C(=O)/C(=C/c1ccc(O)c(O)c1)C2=O | 1500 nM |  | 
3 | COc1ccc2c(c1)C(=O)/C(=C/c1cc(Br)c(O)c(Br)c1)C2=O | 144 nM | 10000 nM | > 50000 nM
4 | COc1ccc2c(c1)C(=O)/C(=C/c1cc(Br)c(O)c(OC)c1)C2=O | 880 nM |  | 
5 | COc1cc2c(cc1OC)C(=O)C(=Cc1cc(Br)c(O)c(Br)c1)C2=O | 110 nM |  | 
6 | O=C1/C(=C/c2ccc(O)c(O)c2)C(=O)c2cc([N+](=O)[O-])ccc21 | > 5000 nM |  | 
7 | O=C1/C(=C/c2cc(Cl)c(O)c(Cl)c2)C(=O)c2c1cccc2[N+](=O)[O-] | 1400 nM |  | 
8 | Nc1ccc2c(c1)C/C(=C\c1cc(Br)c(O)c(Br)c1)C2=O | 5000 nM |  | 
9 | O=C1/C(=C/c2ccc(O)c(O)c2)C(=O)c2c1cccc2[N+](=O)[O-] | 5000 nM |  | 
10 | COc1cc2c(cc1OC)C(=O)C(=Cc1cc(Cl)c(O)c(Cl)c1)C2=O | 310 nM |  | 
11 | COc1cc(/C=C2\C(=O)c3ccc(N)cc3C2=O)cc(OC)c1O | 1700 nM |  | 
12 | O=C1C(=Cc2cc(Br)c(O)c(Br)c2)C(=O)c2ccccc21 | 740 nM |  | 
13 | Nc1cccc2c1C(=O)/C(=C\c1cc(Br)c(O)c(Br)c1)C2=O | 470 nM |  | 
14 | Nc1ccc2c(c1)C(=O)/C(=C/c1cc(Br)c(O)c(Br)c1)C2 | 710 nM |  | 
15 | Nc1ccc2c(c1)C(=O)/C(=C/c1ccc(O)c(O)c1)C2=O | 600 nM |  | 
16 | COc1cc(C=C2C(=O)c3cc(Cl)c(Cl)cc3C2=O)ccc1O | 5000 nM |  | 
17 | Nc1ccc2c(c1)C(=O)/C(=C/c1cc(Cl)c(O)c(Cl)c1)C2=O | 102 nM | 5000 nM | 3500 nM
18 | O=C1C(=Cc2ccc(O)c(O)c2)C(=O)c2ccccc21 | 5000 nM |  | 
19 | O=C1/C(=C\c2cc(Br)c(O)c(Br)c2)C(=O)c2cc(Br)ccc21 | 1000 nM |  | 
20 | Nc1ccc2c(c1)C(=O)/C(=C/c1cc(Br)c(O)c(Br)c1)C2=O | 32 nM | 8000 nM | 460 nM
21 | COc1cc(C=C2C(=O)c3cc(Cl)c(Cl)cc3C2=O)cc(Br)c1O | 1700 nM |  | 

From ChEMBL document CHEMBL1130961, “The development of novel and selective p56lck tyrosine kinase inhibitors” (Bioorg Med Chem Lett, 1998)
